# Assay results: article PMC10620772, “Design, synthesis, and biological evaluation of new pyrimidine-5-carbonitrile derivatives as novel anti-cancer, dual EGFR^WT/COX-2 inhibitors with docking studies” (RSC Advances, 2023)
# “And” between values parts separate entries of the source, which are not always exact repeats. Equal entries are not always repeated.
# Legend:
# COX-2 = target: T1, COX-2 (Homo sapiens, UniProt P35354); test: COX-2 inhibitor screening kit (Biovision); format: biochemical; details: for IC50: means ± SD of three experiments, read-out: COX2 IC50
# T1 construct: purchased Biovision K547
# T1 sequence (P35354 18-604): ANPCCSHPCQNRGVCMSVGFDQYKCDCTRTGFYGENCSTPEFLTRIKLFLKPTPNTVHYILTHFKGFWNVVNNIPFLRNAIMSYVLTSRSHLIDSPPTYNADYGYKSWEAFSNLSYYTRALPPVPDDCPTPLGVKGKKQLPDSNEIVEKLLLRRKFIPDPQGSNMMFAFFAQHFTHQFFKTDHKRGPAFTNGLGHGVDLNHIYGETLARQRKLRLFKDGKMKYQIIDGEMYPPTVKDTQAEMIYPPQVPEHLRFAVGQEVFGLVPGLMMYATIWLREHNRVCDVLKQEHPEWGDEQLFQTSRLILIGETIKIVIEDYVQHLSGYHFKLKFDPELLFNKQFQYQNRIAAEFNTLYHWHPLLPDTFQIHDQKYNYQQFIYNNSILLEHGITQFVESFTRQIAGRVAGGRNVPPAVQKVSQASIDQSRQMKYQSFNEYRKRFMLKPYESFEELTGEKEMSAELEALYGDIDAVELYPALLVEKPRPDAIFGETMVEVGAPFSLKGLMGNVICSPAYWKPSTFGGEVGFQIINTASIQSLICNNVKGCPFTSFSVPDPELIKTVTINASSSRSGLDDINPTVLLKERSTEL
# Protocol: (§1) The inhibitory activity of novel 4e & 4f against COX-1/COX-2 was evaluated by using Biovision COX-1/COX-2 Inhibitor Screening Kit (Catalog #: K548) and (Catalog #: K547), respectively.
# CNS cancer subpanel = test: NCI60 five-dose, subpanel IV; format: cell-based, human; details: for GI50: Homo sapiens, read-out: MG-MID (GI50); for GI50 / MG-MID (TGI): subpanel IV; for Selectivity index (GI50) / Selectivity index (TGI): full panel MG-MID / subpanel IV
# From the text: (§2) (2) The molar concentration of the compound responsible for total growth inhibition, also known as total growth inhibition (TGI).
# (§3) Regarding subpanel selectivity toward certain cancer type, the method of determining a compound's selectivity index is to divide the full panel MG-MID (μM) value by each single subpanel. Values above six indicate high selectivity against the subpanel; moderate selectivity is denoted by values between three and six. Conversely, compounds are termed nonselective if their selectivity is less than three.[30,37]
# [1] = test system: active caspase-3 in Colo 205 cells; test: Caspase-3 ELISA; format: cell-based, human; details: for Caspase 3: Colo_205, treated at IC50
# From the text: Among the death proteases, the caspases family of cysteine-dependent aspartate-directed proteases is significant. There are multiple levels where caspase activation and activity are regulated.[43] Caspases are activated during apoptosis, which eventually results in cell death by deactivating a number of signals.[44] One of the crucial survival signals, EGFR, may be the target of caspase activation to ensure the completion of apoptosis.[45] Additionally, it has been reported that activating caspase-3 through COX-2 inhibition enhances apoptosis.[40] Therefore, the impact of the novel compounds on the level of caspase 3 was examined.
# (1) Into the antibody coated wells add 100 μl of standard diluent buffer excepts wells wich detected to be the chromogen blank, then add 100 μl. […] (10) Decant liquid from wells then wash, (11) pipette 100 μl of chromogen substrate to all wells, The well fluid will start to become blue. (12) 30 minutes should be spent incubating at room temperature in the dark. (13) To each well, add 100 μl of stop solution. To mix, lightly tap the plate's edge. The well solution should transform from blue to yellow. (14) Read the absorbance of each well using a microtiter plate reader at 450 nm. (15) Draw the standard curve using a curve fitting program. (16) The standard curve can be used to determine the concentrations for unknown samples and controls.[55]
# COX-1 = target: T2, COX-1 (Ovis aries, UniProt P05979); test: COX-1 inhibitor screening kit (Biovision); format: biochemical; details: means ± SD of three experiments; read-out: COX1 IC50
# T2 construct: purchased Biovision K548
# T2 sequence (P05979 25-600): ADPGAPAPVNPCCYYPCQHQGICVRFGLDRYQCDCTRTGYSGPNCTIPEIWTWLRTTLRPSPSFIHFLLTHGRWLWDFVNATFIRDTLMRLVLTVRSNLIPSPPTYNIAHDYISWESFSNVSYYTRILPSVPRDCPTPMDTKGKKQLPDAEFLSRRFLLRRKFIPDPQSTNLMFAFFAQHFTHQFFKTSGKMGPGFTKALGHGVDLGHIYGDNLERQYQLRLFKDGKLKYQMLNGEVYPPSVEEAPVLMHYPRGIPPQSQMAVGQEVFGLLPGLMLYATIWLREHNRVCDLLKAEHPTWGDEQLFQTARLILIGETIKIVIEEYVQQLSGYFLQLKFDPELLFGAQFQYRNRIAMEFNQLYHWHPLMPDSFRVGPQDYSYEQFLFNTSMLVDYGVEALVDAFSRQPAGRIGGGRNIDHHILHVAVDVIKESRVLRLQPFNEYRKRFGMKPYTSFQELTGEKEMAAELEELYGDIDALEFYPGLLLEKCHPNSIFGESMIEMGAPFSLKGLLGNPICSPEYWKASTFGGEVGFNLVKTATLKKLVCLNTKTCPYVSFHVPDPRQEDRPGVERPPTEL
# Protocol: as §1
# Colo-205 cells = test: Annexin V-FITC apoptosis assay; format: cell-based, human; details: treated at IC50
# From the text: The Annexin V-FITC/propidium iodide dual staining assay was used to assess the effect of compound (4e and 4f) on inducing apoptosis in Colo-205 cells. This assay allows for the identification of early stages of apoptosis before the loss of cell membrane integrity, allowing measurements of apoptotic death kinetics in relation to the cell cycle.
# Cell Culture Unit, VACSERA, Cairo, Egypt, conducted an apoptosis investigation.
# Centrifuge to collect cells, using binding buffer to resuspend cells. Pipette 5 μl of Annexine-V and 5 μl. Subsequently, incubate sample for 5 min. In R.T, dark condition. Detect Annexine V-FITC binding cells detected by FACSCaliber flow cytometer (Ex = 488 nm; Em = 530 nm) which indicate apoptotic cells. On the other side the PI stained cells detected by FL2 flow cytometer, which detect necrotic cells.[53,54]
# EGFR^WT = target: T3, EGFR^WT (Homo sapiens, UniProt P00533); test: In vitro EGFR^WT inhibitory assay (BPS Bioscience kinase kit); format: biochemical; details: means ± SD of three experiments
# T3 construct: purchased BPS Bioscience 40 321
# T3 sequence (P00533 25-1210): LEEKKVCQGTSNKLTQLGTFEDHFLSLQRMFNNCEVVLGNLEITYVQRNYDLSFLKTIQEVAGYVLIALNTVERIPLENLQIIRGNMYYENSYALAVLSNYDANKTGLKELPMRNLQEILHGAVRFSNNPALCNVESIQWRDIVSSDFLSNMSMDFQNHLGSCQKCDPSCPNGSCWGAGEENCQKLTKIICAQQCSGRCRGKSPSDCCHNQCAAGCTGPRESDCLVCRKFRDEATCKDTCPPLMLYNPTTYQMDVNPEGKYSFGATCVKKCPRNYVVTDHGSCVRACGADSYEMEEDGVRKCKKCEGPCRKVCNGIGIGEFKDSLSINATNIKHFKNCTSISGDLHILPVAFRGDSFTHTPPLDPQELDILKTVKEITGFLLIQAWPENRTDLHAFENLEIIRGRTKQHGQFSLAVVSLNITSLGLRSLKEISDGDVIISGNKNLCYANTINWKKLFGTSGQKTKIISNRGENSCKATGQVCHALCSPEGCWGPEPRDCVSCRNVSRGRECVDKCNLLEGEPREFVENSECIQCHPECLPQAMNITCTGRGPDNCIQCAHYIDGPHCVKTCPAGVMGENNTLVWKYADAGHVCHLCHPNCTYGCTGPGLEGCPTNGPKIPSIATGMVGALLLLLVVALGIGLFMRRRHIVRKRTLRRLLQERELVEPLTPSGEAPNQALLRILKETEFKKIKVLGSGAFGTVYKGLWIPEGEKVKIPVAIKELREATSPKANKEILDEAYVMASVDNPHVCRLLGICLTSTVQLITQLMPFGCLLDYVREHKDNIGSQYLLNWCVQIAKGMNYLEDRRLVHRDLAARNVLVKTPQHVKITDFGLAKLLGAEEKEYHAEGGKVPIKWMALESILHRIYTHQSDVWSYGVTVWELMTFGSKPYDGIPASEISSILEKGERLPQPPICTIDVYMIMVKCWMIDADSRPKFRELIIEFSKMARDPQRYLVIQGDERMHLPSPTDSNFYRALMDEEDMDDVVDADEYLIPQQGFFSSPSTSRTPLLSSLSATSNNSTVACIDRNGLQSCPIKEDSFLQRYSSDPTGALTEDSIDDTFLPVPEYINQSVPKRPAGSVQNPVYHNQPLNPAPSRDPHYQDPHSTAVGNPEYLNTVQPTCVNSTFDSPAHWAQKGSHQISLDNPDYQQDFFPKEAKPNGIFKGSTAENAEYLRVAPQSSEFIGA
# Protocol: (1) Prepare the mixture of N wells × (kinase assay buffer 6 μl, ATP1 μl, PTK substrate 1 μl and water 17 μl). to every well pipette the 25 μl. […] On the contrary, add 5 μl of inhibitor buffer to control and plank wells. (3) Pipette 20 μl of EGFR^WT to test and control wells, on the blank wells pipette 20 μl kinase assay buffer. Then incubate at R.T for 40 min. (4) end the incubation after 40 min by adding to every well 50 μl of Kinase-Glo Max reagent, and incubate 15 min. By measuring the ATP quantity after kinase reaction, the activity of kinase could be detected. (5) use microplate reader to measure the luminescence.[51]
# renal cancer subpanel = test: NCI60 five-dose, subpanel VII; format: cell-based, human; details: for GI50: Homo sapiens, read-out: MG-MID (GI50); for GI50 / MG-MID (TGI): subpanel VII; for Selectivity index (GI50) / Selectivity index (TGI): full panel MG-MID / subpanel VII
# From the text: as §2, §3
# ovarian cancer subpanel = test: NCI60 five-dose, subpanel VI; format: cell-based, human; details: for GI50: Homo sapiens, read-out: MG-MID (GI50); for GI50 / MG-MID (TGI): subpanel VI; for Selectivity index (GI50) / Selectivity index (TGI): full panel MG-MID / subpanel VI
# From the text: as §2, §3
Structure (SMILES),SI (COX-2 over COX-1) (COX-2),IC50 (COX-2),GI50 (CNS cancer subpanel),Selectivity index (GI50) (CNS cancer subpanel),Selectivity index (TGI) (CNS cancer subpanel),MG-MID (TGI) (CNS cancer subpanel),Caspase 3 [1],IC50 (COX-1),Apoptosis early (Colo-205 cells),Apoptosis late (Colo-205 cells),Apoptosis total (Colo-205 cells),Necrosis (Colo-205 cells),IC50 (EGFR^WT),GI50 (renal cancer subpanel),Selectivity index (GI50) (renal cancer subpanel),Selectivity index (TGI) (renal cancer subpanel),MG-MID (TGI) (renal cancer subpanel),GI50 (ovarian cancer subpanel),Selectivity index (GI50) (ovarian cancer subpanel),Selectivity index (TGI) (ovarian cancer subpanel),other results
"N#Cc1c(-c2ccc(F)cc2)nc(SCc2ccccc2)nc1N1CCNCC1 [4e, 2-(Benzylthio)-4-(4-fluorophenyl)-6-(piperazin-1-yl) pyrimidine-5-carbonitrile]",8.55,1.28 µM,12.6 µM,0.85,0.88,26.80 µM,808.9 ± 11.9 pg·mL,11 ± 0.31 µM,19.91%,25.22%,51.07%,5.94%,0.096 ± 0.004 µM,12.2 µM,0.87,0.92,25.75 µM,13.2 µM,0.81,0.83,MG-MID (TGI) (ovarian cancer subpanel): 28.35 µM
"N#Cc1c(-c2ccc(F)cc2)nc(SCc2ccc(F)cc2)nc1N1CCNCC1 [4f, 2-((4-Fluorobenzyl)thio)-4-(4-fluorophenyl)-6-(piperazin-1-yl) pyrimidine-5-carbonitrile]",6.01,5.26 µM,14.3 µM,0.94,0.91,28.98 µM,656.4 ± 13.1 pg·mL,31.6 ± 0.89 µM,26.15%,12.71%,43.12%,4.26%,0.23 µM and 0.235 µM,23.2 µM,0.57,0.94,28.11 µM,15 µM,0.89,0.86,"Caspase 3 fold vs control ([1]; Colo 205, treated at IC50): 8 fold and 7.88 fold; MG-MID (TGI) (ovarian cancer subpanel): 30.41 µM"
